Laboratory results published in PMC5201116, “Bioactive Flavonoids and Catechols as Hif1 and Nrf2 Protein Stabilizers - Implications for Parkinson’s Disease” (Aging and Disease, 2016).

How the values were obtained:
[1] = test system: VEGF mRNA in immature primary cortical neurons; assay: VEGF mRNA induction, real-time RT-PCR; assay type: cell-based; settings: Fig. 4B
Method: For VEGF gene expression studies, total RNA was isolated from immature primary cortical neurons, pretreated overnight with the indicated concentration of a bioactive compound, using the NucleoSpin RNA II kit (Macherey-Nagel, Bethlehem, PA) according to manufacturer’s protocol. Real-time PCR was performed in triplicate as a duplex reaction using a VEGF (Mm01281449_m1) gene expression assay with a 6-carboxyfluorescein-labeled probe, and a β actin gene expression assay with a VIC-labeled probe (Applied Biosystems, Foster City, CA), so that gene amplification could be normalized to β actin. These experiments were performed using a 7500 Real-time PCR System (Applied Biosystems) using standard PCR protocol and amplification conditions.

[2] = test system: primary neuronal cultures treated with 5 mM HCA; assay: Glutathione depletion (HCA) model, MTT viability; assay type: cell-based, rat; settings: glutathione depletion model, Fig. 5
Method: Primary neuronal cultures were prepared from the forebrains of Sprague-Dawley rat embryos (E17) and plated on 96 well plates at a 10^6 cells/ml density. After 24 hours, cells were rinsed with warm PBS and then placed in minimum Essential Medium (MEM; Life Technologies, Grand Island, NY) containing 5 mM HCA in the presence of a compound of interest at varied concentrations. Cells were incubated for 24 h or longer to see 90% cell death in HCA treated controls. Viability was assessed by the MTT (4,5-dimethylthiazol-2-yl)-2,5-diphenyltetrazolium bromide) assay.

[3] = test system: C57Bl6 mice, MPTP model of Parkinson's disease; assay: Stereological counts of Nissl- and TH-positive neurons in SNpc, MPTP model; assay type: in vivo, mouse; settings: NDGA 100mg/kg/day, Fig. 7
Method: Acute MPTP-intoxication paradigm was used to test the neuroprotective effects of NDGA using male C57Bl6 mice. In this protocol, 10-week-old C57Bl6 mice (n = 8-10 per group) were divided into four different groups consisting of 1) a control group treated with saline alone; 2) a group treated with MPTP alone; 3) a group treated with NDGA alone and; 4) group treated with NDGA in combination with MPTP. NDGA was dissolved in 1:4 ethanol:neobee oil (a derivative of coconut oil). MPTP 10 mg/kg free base was administered intraperitoneally three times a day every two hours. Animals with NDGA in combination with MPTP were administered NDGA by oral gavage with 50 and 100mg/kg/day body weight of the drug in 100 microliter volume once a day for 4 days before MPTP and once a day for 3 days after MPTP. On the day of MPTP NDGA was administered to mice 2 hours before the initiation of MPTP. Animals belonging to MPTP and control groups received the vehicle (ethanol:neobee oil, 1:4) whereas the drug alone group received respective doses of NDGA at the same frequency. All animals were sacrificed on the 7th day after MPTP. […]

HO-1 mRNA in brain = assay: Brain HO-1 mRNA levels after NDGA; assay type: in vivo, mouse; settings: 6 hours after last dose, data not shown
Method: We used an acute paradigm of MPTP administration (10 mg MPTP/kg X 3, every two hours), known to cause about a 50% loss of striatal dopamine and its metabolites DOPAC and HVA and significant loss of tyrosine hydroxylase (TH) immunopositive neurons in the substantia nigra pars compacta (SNpc) on the 7th day. […] The doses that were used to determine the efficacy of NDGA against MPTP were determined by evaluation of brain HO-1 levels. Both 50 and 100 mg/kg administered twice a day induced a dose dependent increase in HO-1 mRNA levels at 6 hours after last dose of NDGA.

CC(Cc1ccc(O)c(O)c1)C(C)Cc1ccc(O)c(O)c1 (centres unmarked) [compound 28, 4,4'-(2,3-dimethylbutane-1,4-diyl)dibenzene-1,2-diol]
VEGF induction potency relative to FG-4592 [1]: at least 2 times
concentration at which neuroprotection begins [2]: 2.5 µM
MPTP-induced loss of total (Nissl-positive) and TH-immunopositive neurons in SNpc [3]: significant attenuation
increase in HO-1 mRNA levels (HO-1 mRNA in brain; 50 mg/kg twice a day): 1.2 fold
increase in HO-1 mRNA levels (HO-1 mRNA in brain; 100 mg/kg twice a day): 6 fold
